Source: patent US9603364B2 (Dow AgroSciences LLC, priority 2013, dated 2017)

Legend:
Experiment in all cases: General post-emergent herbicidal activity, foliar application
Assay type in all cases: in vivo
[1] = test system: Amaranthus retroflexus L. (pigweed, redroot); settings: for pest or weed control at 70 g/ha: 70 g ai/ha; for pest or weed control at 140 g/ha: 140 g ai/ha; for pest or weed control at 280 g/ha: 280 g ai/ha; for GR80 Value AMARE: calculated by probit analysis, dose for 80% visual injury, may be extrapolated
Method in brief: (§1)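 Compounds in acetone/DMSO 97:3 were diluted into aqueous spray mix with isopropanol, crop oil concentrate and Triton X-155, then serially diluted to 1/2×–1/16× of the top rate and sprayed on foliage. Plants were kept in greenhouse with sub-irrigation. Injury was scored visually (0–100%) at 14 days; GR20/GR50/GR80 came from probit analysis.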

[2] = test system: Chenopodium album L. (lambsquarters, common); settings: for pest or weed control at 70 g/ha: 70 g ai/ha; for pest or weed control at 140 g/ha: 140 g ai/ha; for pest or weed control at 280 g/ha: 280 g ai/ha; for GR80 Value CHEAL: calculated by probit analysis, dose for 80% visual injury, may be extrapolated
Method in brief: as §1

[3] = test system: Echinochloa crus-galli (L.) Beauv. (barnyardgrass); settings: for pest or weed control at 70 g/ha: 70 g ai/ha; for pest or weed control at 140 g/ha: 140 g ai/ha; for pest or weed control at 280 g/ha: 280 g ai/ha; for GR80 Value ECHCG: calculated by probit analysis, dose for 80% visual injury, may be extrapolated
Method in brief: as §1

[4] = test system: Euphorbia heterophylla L. (poinsettia, wild); settings: for pest or weed control at 70 g/ha: 70 g ai/ha; for pest or weed control at 140 g/ha: 140 g ai/ha; for pest or weed control at 280 g/ha: 280 g ai/ha; for GR80 Value EPHHL: calculated by probit analysis, dose for 80% visual injury, may be extrapolated
Method in brief: as §1

[5] = test system: Helianthus annuus L. (sunflower, common); settings: for pest or weed control at 70 g/ha: 70 g ai/ha; for pest or weed control at 140 g/ha: 140 g ai/ha; for pest or weed control at 280 g/ha: 280 g ai/ha; for GR80 Value HELAN: calculated by probit analysis, dose for 80% visual injury, may be extrapolated
Method in brief: as §1

[6] = test system: Viola tricolor L. (pansy); settings: for pest or weed control at 70 g/ha: 70 g ai/ha; for pest or weed control at 140 g/ha: 140 g ai/ha; for pest or weed control at 280 g/ha: 280 g ai/ha; for GR80 Value VIOTR: calculated by probit analysis, dose for 80% visual injury, may be extrapolated
Method in brief: as §1

Oryza sativa L. (rice) = settings: Oryza sativa, 336 h, scored after 14 days, read-out: % Visual Growth Reduction ORYSA; for plant injury at 70 g/ha: 70 g ai/ha; for plant injury at 140 g/ha: 140 g ai/ha; for plant injury at 280 g/ha: 280 g ai/ha
Method in brief: (§2)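 Injury rated visually 14 days after treatment on a 0 (none) to 100% (complete kill) scale against untreated plants; greenhouse-grown, sub-irrigated to avoid wash-off. Foliar spray in aqueous acetone/DMSO with isopropanol, crop oil concentrate and Triton X-155, at a highest rate and 2-fold serial dilutions down to 1/16×.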

Zea mays L. (corn) = settings: 336 h, scored after 14 days, read-out: % Visual Growth Reduction ZEAMX; for plant injury at 70 g/ha: 70 g ai/ha; for plant injury at 140 g/ha: 140 g ai/ha; for plant injury at 280 g/ha: 280 g ai/ha
Method in brief: as §2

[7] = Amaranthus retroflexus, 336 h, foliar post-emergent, scored after 14 days, read-out: % Visual Growth Reduction AMARE
[8] = Chenopodium album, 336 h, foliar post-emergent, scored after 14 days, read-out: % Visual Growth Reduction CHEAL
[9] = Echinochloa crus-galli, 336 h, foliar post-emergent, scored after 14 days, read-out: % Visual Growth Reduction ECHCG
[10] = Euphorbia heterophylla, 336 h, foliar post-emergent, scored after 14 days, read-out: % Visual Growth Reduction EPHHL
[11] = Helianthus annuus, 336 h, foliar post-emergent, scored after 14 days, read-out: % Visual Growth Reduction HELAN
[12] = Viola tricolor, 336 h, foliar post-emergent, scored after 14 days, read-out: % Visual Growth Reduction VIOTR

SMILES | pest or weed control at 70 g/ha [1, 7] [%] | pest or weed control at 140 g/ha [1, 7] [%] | pest or weed control at 280 g/ha [1, 7] [%] | GR80 Value AMARE [1] [g ai/ha] | pest or weed control at 70 g/ha [2, 8] [%] | pest or weed control at 140 g/ha [2, 8] [%] | pest or weed control at 280 g/ha [2, 8] [%] | GR80 Value CHEAL [2] [g ai/ha] | pest or weed control at 70 g/ha [3, 9] [%] | pest or weed control at 140 g/ha [3, 9] [%] | pest or weed control at 280 g/ha [3, 9] [%] | GR80 Value ECHCG [3] [g ai/ha] | pest or weed control at 140 g/ha [4, 10] [%] | GR80 Value EPHHL [4] [g ai/ha] | pest or weed control at 140 g/ha [5, 11] [%] | GR80 Value HELAN [5] [g ai/ha] | pest or weed control at 140 g/ha [6, 12] [%] | GR80 Value VIOTR [6] [g ai/ha] | plant injury at 140 g/ha (Oryza sativa L. (rice)) [%] | plant injury at 140 g/ha (Zea mays L. (corn)) [%] | also measured
CC(F)c1nc(C(=O)O)c(Cl)c(N)c1Cl (stereo not shown) [Compound F16, 4-Amino-3,5-dichloro-6-(1-fluoroethyl)picolinic acid] | 90 | 90 | 100 | 51.4 | 100 | 100 | 100 | <17.5 | 0 | 0 | 0 | >280 | 0 | 373 | 90 | 31.4 | 0 | >280 | 0 | 0 | pest or weed control at 70 g/ha [4, 10]: 0%; pest or weed control at 280 g/ha [4, 10]: 50%; pest or weed control at 70 g/ha [5, 11]: 80%; pest or weed control at 280 g/ha [5, 11]: 100%; pest or weed control at 70 g/ha [6, 12]: 0%; pest or weed control at 280 g/ha [6, 12]: 0%; plant injury at 70 g/ha (Oryza sativa L. (rice)): 0%; plant injury at 280 g/ha (Oryza sativa L. (rice)): 0%; plant injury at 70 g/ha (Zea mays L. (corn)): 0%; plant injury at 280 g/ha (Zea mays L. (corn)): 0%
Nc1c(F)c(C(F)F)nc(C(=O)O)c1Cl [Compound F32, 4-Amino-3-chloro-6-(difluoromethyl)-5-fluoropicolinic acid] |  | 55 | 85 | 251 |  | 90 | 100 | 26.9 |  | 55 | 60 | 433 | 30 | >280 | 100 | 40.8 | 5 | >280 | 0 | 0 | pest or weed control at 280 g/ha [4, 10]: 50%; pest or weed control at 280 g/ha [5, 11]: 100%; pest or weed control at 280 g/ha [6, 12]: 10%; plant injury at 280 g/ha (Oryza sativa L. (rice)): 5%; plant injury at 280 g/ha (Zea mays L. (corn)): 10%
COC(=O)c1nc(C(C)(C)F)cc(N)c1Cl [Compound F9, methyl 4-amino-3-chloro-6-(2-fluoropropan-2-yl)picolinate] | 100 | 100 |  | 13.7 | 70 | 85 |  | 110 | 0 | 0 |  | >140 | 100 | 49.4 | 50 | 237 | 30 | >140 | 0 | 15 | pest or weed control at 70 g/ha [4, 10]: 85%; pest or weed control at 70 g/ha [5, 11]: 50%; pest or weed control at 70 g/ha [6, 12]: 40%; plant injury at 70 g/ha (Oryza sativa L. (rice)): 0%; plant injury at 70 g/ha (Zea mays L. (corn)): 0%
COC(=O)c1nc(C(F)CF)cc(N)c1Cl (stereo not shown) [Compound F28, methyl 4-amino-3-chloro-6-(1,2-difluoroethyl)picolinate] | 80 | 100 | 100 | 66.4 | 90 | 80 | 90 | 17.5 | 0 | 0 | 0 | >280 | 100 | 73 | 90 | 52.9 | 75 | 197 | 0 | 10 | pest or weed control at 70 g/ha [4, 10]: 80%; pest or weed control at 280 g/ha [4, 10]: 100%; pest or weed control at 70 g/ha [5, 11]: 80%; pest or weed control at 280 g/ha [5, 11]: 95%; pest or weed control at 70 g/ha [6, 12]: 15%; pest or weed control at 280 g/ha [6, 12]: 90%; plant injury at 70 g/ha (Oryza sativa L. (rice)): 0%; plant injury at 280 g/ha (Oryza sativa L. (rice)): 0%; plant injury at 70 g/ha (Zea mays L. (corn)): 10%; plant injury at 280 g/ha (Zea mays L. (corn)): 10%
COC(=O)c1nc(C(C)CF)c(F)c(N)c1Cl (stereo not shown) [Compound F37, methyl 4-amino-3-chloro-5-fluoro-6-(1-fluoropropan-2-yl)picolinate] |  |  |  |  |  |  |  |  |  |  |  |  |  |  |  |  |  |  |  |  | pest or weed control at 132 g/ha ([1]; Amaranthus retroflexus, 336 h, 132 g ai/ha, foliar post-emergent, scored after 14 days, read-out: % Visual Growth Reduction AMARE): 50%; pest or weed control at 132 g/ha ([2]; Chenopodium album, 336 h, 132 g ai/ha, foliar post-emergent, scored after 14 days, read-out: % Visual Growth Reduction CHEAL): 0%; pest or weed control at 132 g/ha ([3]; Echinochloa crus-galli, 336 h, 132 g ai/ha, foliar post-emergent, scored after 14 days, read-out: % Visual Growth Reduction ECHCG): 0%; pest or weed control at 132 g/ha ([4]; Euphorbia heterophylla, 336 h, 132 g ai/ha, foliar post-emergent, scored after 14 days, read-out: % Visual Growth Reduction EPHHL): 100%; pest or weed control at 132 g/ha ([5]; Helianthus annuus, 336 h, 132 g ai/ha, foliar post-emergent, scored after 14 days, read-out: % Visual Growth Reduction HELAN): 80%; pest or weed control at 132 g/ha ([6]; Viola tricolor, 336 h, 132 g ai/ha, foliar post-emergent, scored after 14 days, read-out: % Visual Growth Reduction VIOTR): 0%; plant injury at 132 g/ha (Oryza sativa L. (rice); 132 g ai/ha): 0%; plant injury at 132 g/ha (Zea mays L. (corn); 132 g ai/ha): 0%
